From the Kinase Knowledgebase extract (Sharma et al. 2016)

Biological target: PIK3CB;PIK3CG;PIK3CD;PIK3CA (human) (UniProt P48736)
Assay: Enzyme Assay

IC50	Compound
4280 nM	CN1CCN(C(=O)c2ccc3c(c2)-c2c(c(C(=O)N4CCOCC4)nn2-c2ccccc2)CS3(=O)=O)CC1
110 nM	O=C(c1nn(-c2ccc(CN3CCCCC3)cc2)c2c1CS(=O)(=O)c1ccccc1-2)N1CCOCC1
459 nM	COc1ccc(Cn2nc(C(=O)N3CCOCC3)c3c2-c2ccccc2S(=O)(=O)C3)cc1
249 nM	COC1CCN(Cc2ccc(-n3nc(C(=O)N4CCOCC4)c4c3-c3ccccc3S(=O)(=O)C4)cc2)CC1
614 nM	O=C(c1nn(-c2ccc(CN3CCOCC3)nc2)c2c1CS(=O)(=O)c1ccccc1-2)N1CCOCC1
34 nM	O=C(c1nn(C2CCCN(CCN3CCC(F)CC3)C2)c2c1CS(=O)(=O)c1ccccc1-2)N1CCOCC1 (configuration not stated)
377 nM	CCCCn1nc(C(=O)N2CCOCC2)c2c1-c1ccccc1S(=O)(=O)C2
3940 nM	O=C(c1nn(-c2ccc(N3CCOCC3)cc2)c2c1CS(=O)(=O)c1ccccc1-2)N1CCOCC1
355 nM	O=C(c1nn(-c2ccc(CN3CCCC(F)(F)C3)cc2)c2c1CS(=O)(=O)c1ccccc1-2)N1CCOCC1
926 nM	Cc1cccc(-n2nc(C(=O)N3CCOCC3)c3c2-c2ccccc2S(=O)(=O)C3)c1
247 nM	O=C(c1nn(-c2ccc(CN3CCC(F)CC3)cc2)c2c1CS(=O)(=O)c1ccccc1-2)N1CCOCC1
2650 nM	CN1CCC(Cn2nc(C(=O)N3CCOCC3)c3c2-c2ccccc2S(=O)(=O)C3)CC1
421 nM	CS(=O)(=O)NCc1ccc(-n2nc(C(=O)N3CCOCC3)c3c2-c2ccccc2S(=O)(=O)C3)cc1
17 nM	O=C(c1nn([C@H]2CCCN(CCN3CC(F)(F)C3)C2)c2c1CS(=O)(=O)c1ccccc1-2)N1CCOCC1
55 nM	O=C(c1nn([C@H]2CCN(CCN3CCC(F)CC3)C2)c2c1CS(=O)(=O)c1ccccc1-2)N1CCOCC1
4520 nM	NCCCC1c2c(C(=O)N3CCOCC3)nn(-c3ccccc3)c2-c2ccccc2S1(=O)=O (configuration not stated)
795 nM	O=C(c1nn(CCN2CCOCC2)c2c1CS(=O)(=O)c1ccccc1-2)N1CCOCC1
6050 nM	CN1CCCC(Cn2nc(C(=O)N3CCOCC3)c3c2-c2ccccc2S(=O)(=O)C3)C1 (configuration not stated)
1190 nM	O=C(c1nn(Cc2ccccc2)c2c1CS(=O)(=O)c1ccccc1-2)N1CCOCC1
624 nM	O=C(c1nn(Cc2cc(Cl)cs2)c2c1CS(=O)(=O)c1ccccc1-2)N1CCOCC1
1470 nM	CC(C)c1ccc(-n2nc(C(=O)N3CCOCC3)c3c2-c2ccccc2S(=O)(=O)C3)cc1
1310 nM	CS(=O)(=O)Nc1ccc2c(c1)-c1c(c(C(=O)N3CCOCC3)nn1-c1ccccc1)CS2(=O)=O

IC50	Compound
2160 nM	CC1CN(C(=O)c2nn(-c3ccccc3)c3c2CS(=O)(=O)c2ccccc2-3)CCO1 (configuration not stated)
772 nM	CN1CCCC(n2nc(C(=O)N3CCOCC3)c3c2-c2ccccc2S(=O)(=O)C3)C1 (configuration not stated)
4720 nM	CN(C)c1cccc(-n2nc(C(=O)N3CCOCC3)c3c2-c2ccccc2S(=O)(=O)C3)c1
48 nM	O=C(c1nn([C@H]2CCCN(c3cccnc3)C2)c2c1CS(=O)(=O)c1ccccc1-2)N1CCOCC1
138 nM	CC(C)CCN1CCCC(n2nc(C(=O)N3CCOCC3)c3c2-c2ccccc2S(=O)(=O)C3)C1 (configuration not stated)
92 nM	O=C(c1nn([C@H]2CCN(CCC3CCOCC3)C2)c2c1CS(=O)(=O)c1c(F)cccc1-2)N1CCOCC1
25 nM	O=C(c1nn([C@H]2CCCN(CC3CCOCC3)C2)c2c1CS(=O)(=O)c1ccccc1-2)N1CCOCC1
926 nM	O=C(Nc1cccnc1)c1cccc(-n2nc(C(=O)N3CCOCC3)c3c2-c2ccccc2S(=O)(=O)C3)c1
27 nM	COc1ccc2c(c1)S(=O)(=O)Cc1c(C(=O)N3CCOCC3)nn([C@H]3CCCN(CCC4CCOCC4)C3)c1-2
41 nM	O=C(CCN1CCC[C@H](n2nc(C(=O)N3CCOCC3)c3c2-c2ccccc2S(=O)(=O)C3)C1)N1CCC(F)(F)C1
468 nM	O=C(c1nn(C2CCCN(c3ccccc3)C2)c2c1CS(=O)(=O)c1ccccc1-2)N1CCOCC1 (configuration not stated)
1390 nM	COCCNc1ccc2c(c1)-c1c(c(C(=O)N3CCOCC3)nn1C1CCCCC1)CS2(=O)=O
495 nM	CC(C)(C)OC(=O)N1CCC(Cn2nc(C(=O)N3CCOCC3)c3c2-c2ccccc2S(=O)(=O)C3)CC1
80 nM	O=C(c1nn([C@H]2CCCN(C3CCOCC3)C2)c2c1CS(=O)(=O)c1ccccc1-2)N1CCOCC1
85 nM	O=C(c1nn([C@H]2CCCN(Cc3cccnc3)C2)c2c1CS(=O)(=O)c1ccccc1-2)N1CCOCC1
616 nM	O=C(c1nn(-c2cccc(Br)c2)c2c1CS(=O)(=O)c1ccccc1-2)N1CCOCC1
59 nM	COC1CCN(Cc2ccc(-n3nc(C(=O)N4CCOCC4)c4c3-c3ccccc3S(=O)(=O)C4)cc2)C1 (configuration not stated)
170 nM	O=C(c1nn(-c2ccc(CN3CCOCC3)cc2)c2c1CS(=O)(=O)c1ccccc1-2)N1CCOCC1
726 nM	COCCOc1cccc(-n2nc(C(=O)N3CCOCC3)c3c2-c2ccccc2S(=O)(=O)C3)c1
1300 nM	O=C(c1nn(-c2ccccc2)c2c1CS(=O)(=O)c1ccc(Br)cc1-2)N1CCOCC1
4040 nM	Cc1ccncc1-n1nc(C(=O)N2CCOCC2)c2c1-c1ccccc1S(=O)(=O)C2
98 nM	O=C(c1nn(C2CCCN(CC3CCOC3)C2)c2c1CS(=O)(=O)c1ccccc1-2)N1CCOCC1 (configuration not stated)

IC50	Compound
516 nM	O=C(c1nn(-c2cccc(CN3CCCC3)c2)c2c1CS(=O)(=O)c1ccccc1-2)N1CCOCC1
10700 nM	O=C(c1nn(Cc2cnccn2)c2c1CS(=O)(=O)c1ccccc1-2)N1CCOCC1
1080 nM	Cc1ccccc1-c1cccc(-n2nc(C(=O)N3CCOCC3)c3c2-c2ccccc2S(=O)(=O)C3)c1
285 nM	O=C(c1nn(-c2ccc(CN3CCCC3)cc2)c2c1CS(=O)(=O)c1ccccc1-2)N1CCOCC1
49 nM	Cc1cccc2c1S(=O)(=O)Cc1c(C(=O)N3CCOCC3)nn([C@H]3CCCN(CCN4CCOCC4)C3)c1-2
1500 nM	Cc1ccc2c(c1)-c1c(c(C(=O)N3CCOCC3)nn1-c1ccccc1)CS2(=O)=O
4520 nM	CS(=O)(=O)c1ccc(-n2nc(C(=O)N3CCOCC3)c3c2-c2ccccc2S(=O)(=O)C3)cc1
1060 nM	O=C(c1nn([C@H]2CCCNC2)c2c1CS(=O)(=O)c1ccccc1-2)N1CCOCC1
498 nM	CC1(C)CCCC(n2nc(C(=O)N3CCOCC3)c3c2-c2ccccc2S(=O)(=O)C3)C1 (configuration not stated)
386 nM	O=C(c1nn(C2CCC(F)(F)CC2)c2c1CS(=O)(=O)c1ccccc1-2)N1CCOCC1
45 nM	O=C(c1nn([C@H]2CCCN(Cc3ccncc3)C2)c2c1CS(=O)(=O)c1ccccc1-2)N1CCOCC1
1230 nM	CN1CCCC1CCn1nc(C(=O)N2CCOCC2)c2c1-c1ccccc1S(=O)(=O)C2 (configuration not stated)
15 nM	COc1ccc2c(c1)S(=O)(=O)Cc1c(C(=O)N3CCOCC3)nn([C@H]3CCCN(CCN4CC(F)(F)C4)C3)c1-2
3550 nM	COCCN1CCC[C@@H](n2nc(C(=O)N3CCOCC3)c3c2-c2ccccc2S(=O)(=O)C3)C1
1500 nM	O=C(c1nn([C@H]2CCCN(C(=O)C3CCOCC3)C2)c2c1CS(=O)(=O)c1ccccc1-2)N1CCOCC1
3350 nM	COc1ccc2c(c1)-c1c(c(C(=O)N3CCOCC3)nn1-c1ccccc1)CS2(=O)=O
140 nM	COCCCN1CCCC(n2nc(C(=O)N3CCOCC3)c3c2-c2ccccc2S(=O)(=O)C3)C1 (configuration not stated)
1040 nM	Cn1nc(C(=O)N2CCOCC2)c2c1-c1cc(Br)ccc1S(=O)(=O)C2
99 nM	O=C(c1nn([C@@H]2CCCN(CCC3CCOCC3)C2)c2c1CS(=O)(=O)c1ncccc1-2)N1CCOCC1
5600 nM	O=C(c1nn([C@H]2CCCN(CCn3ccnc3)C2)c2c1CS(=O)(=O)c1ccccc1-2)N1CCOCC1
895 nM	O=C(c1nn(-c2ccc(Cl)cc2)c2c1CS(=O)(=O)c1ccccc1-2)N1CCOCC1
44 nM	COc1ccc2c(c1)S(=O)(=O)Cc1c(C(=O)N3CCOCC3)nn([C@H]3CCCN(CC4CCOC4)C3)c1-2 (some centres not stated)

IC50	Compound
254 nM	O=C(c1nn(C2CCCN(C3CCOCC3)C2)c2c1CS(=O)(=O)c1ccccc1-2)N1CCOCC1 (configuration not stated)
18 nM	O=C(c1nn([C@H]2CCCN(CCN3CCC(O)CC3)C2)c2c1CS(=O)(=O)c1ccccc1-2)N1CCOCC1
362 nM	O=C(c1nn(C2CCCC(C(=O)N3CCCCC3)C2)c2c1CS(=O)(=O)c1ccccc1-2)N1CCOCC1 (configuration not stated)
202 nM	O=C(c1nn(-c2ccc(CN3CCOCC3)cc2)c2c1CS(=O)(=O)c1cc(F)ccc1-2)N1CCOCC1
437 nM	O=C(c1nn(C2CCCCC2)c2c1CS(=O)(=O)c1ncccc1-2)N1CCOCC1
2820 nM	CC(=O)N1CCC(Cn2nc(C(=O)N3CCOCC3)c3c2-c2ccccc2S(=O)(=O)C3)CC1
478 nM	COCCN1CCCC(n2nc(C(=O)N3CCOCC3)c3c2-c2ccccc2S(=O)(=O)C3)CC1 (configuration not stated)
7900 nM	NC(=O)c1cccc2c1S(=O)(=O)Cc1c(C(=O)N3CCOCC3)nn(-c3ccccc3)c1-2
2250 nM	O=C(c1nn(CCCO)c2c1CS(=O)(=O)c1ccccc1-2)N1CCOCC1
11700 nM	COCN1c2c(C(=O)N3CCOCC3)nn(-c3ccccc3)c2-c2ccccc2S1(=O)=O
1700 nM	O=C(c1nn(-c2ccccc2)c2c1CS(=O)(=O)c1sccc1-2)N1CCOCC1
67 nM	O=C(c1nn(C2CCCN(C3COC3)C2)c2c1CS(=O)(=O)c1ccccc1-2)N1CCOCC1 (configuration not stated)
36 nM	O=C(c1nn([C@H]2CCCN(C3CCCOC3)C2)c2c1CS(=O)(=O)c1ncccc1-2)N1CCOCC1 (some centres not stated)
349 nM	COc1ccc2c(c1)S(=O)(=O)Cc1c(C(=O)N3CCOCC3)nn(-c3ccccc3)c1-2
73 nM	CC1(C)CN(CCN2CCC[C@H](n3nc(C(=O)N4CCOCC4)c4c3-c3ccccc3S(=O)(=O)C4)C2)CCO1
277 nM	COC1CN(Cc2cccc(-n3nc(C(=O)N4CCOCC4)c4c3-c3ccccc3S(=O)(=O)C4)c2)C1
20 nM	COC1CN(CCN2CCC[C@H](n3nc(C(=O)N4CCOCC4)c4c3-c3ccccc3S(=O)(=O)C4)C2)C1
1540 nM	O=C(c1nn(-c2cccc(CN3CCCC(F)(F)C3)c2)c2c1CS(=O)(=O)c1ccccc1-2)N1CCOCC1
120 nM	O=C(c1nn(C2CCCN(CCN3CCOCC3)C2)c2c1CS(=O)(=O)c1c(Cl)cccc1-2)N1CCOCC1 (configuration not stated)
464 nM	CS(=O)(=O)C1CCN(Cc2cccc(-n3nc(C(=O)N4CCOCC4)c4c3-c3ccccc3S(=O)(=O)C4)c2)C1 (configuration not stated)

Compound	IC50
O=C(c1nn(CC2CCCC2)c2c1CS(=O)(=O)c1ccccc1-2)N1CCOCC1	247 nM
